According to US20210198256A1, “COMPOUNDS FOR THE DEGRADATION OF BRD9 OR MTH1” (C4 Therapeutics, Inc., priority 2018, published 2021):

System: SMARTCAR-MTH1-wt-HiBiT (Jurkat.7 cells)
Assay: HiBit Lytic Assay (HiBit DC50, MTH1 degraders of Table 2)
Assay type: cell-based, human
Conditions: Jurkat.7 SMARTCAR-MTH1-wt-HiBiT cells, compound treatment time 4 hr, 11-point half log dose response
Protocol: Example 3. HiBit Lytic Assay
• Compound is made at 10 mM, half log dilution, 11 points. • MDR plates can also be ordered from Frontier with same format. • 1. Barcode a 384LDV plate (384-well Low Dead Volume Microplate, Labcyte LP-0200) (Echo compatible) on the left side. • 2. Transfer 13.6 μL of 10 mM compound into column 1 of LDV plate (Labcyte). • 3. Fill column 2-11 and column 23 of MDR plate with 9.30 μL of DMSO. • 4. Serial dilute 3.16 fold from column 1 to 2 by transferring 4.30 μL from column 1 to column 2, and so on to column 11. *Change tip in every dilution to prevent compound carryover effect! • 5. Seal the plate with Plate Sealer, then store the MDR plate at room temperature for short term storage and in −20° C. for long term storage.
• Cells are treated with 30 nL of each compound at 10 mM, half log dilution, 11 points with final concentration of 1000 nM or 833 nM, half log dilution, 11 points, in duplicates. Final DMSO concentration is 0.1%. • 1. Barcode the plates made on the left side and label the plates with silver marker. • 2. Dispense with the following scheme: • a. 30 nL of compound into corresponding wells in cell plates via Echo550 with “MDR32_HiBiT16_30 nL”. Top concentration will be 1000 nM. • 3. Seal the plate with Plate Sealer.
• Cells are dispensed at density specified in Cell Line Table in 384-well microplate. • 1. Culture cells to between 50-80% of confluence in sterile culture flasks of appropriate size. • 2. For Adherent Cell Lines: • a. Aspirate off growth media in culture flask, and wash off the Phenol Red media with 5 mL of 1×PBS. • b. Add 5 mL of Trypsin to the cells, incubate at 37° C. for 5 minutes. • c. Add 5 mL of growth media to the trypsinzed cells, and resuspend. • 3. Remove 10 μL of cells, and resuspend the cells with 10 μL of Trypan Blue. Insert the solution to counting chamber slide, and count the cells via cell counter. • 4. Adjust the cell concentration to specified plating density, and strain the cells with cell strainer. • 5. Dispense the cells via E1-ClipTip™ Electronic Multichannel Pipettes or Multidrop™ Combi Reagent Dispenser with Standard tube dispensing cassette: • a. Prime the cassette with 10-20 mL of ddH2O. • b. Prime the cassette with 10-20 mL of cells. • c. Dispense the cells at low speed for 30 μL/well in Corning® 384 Well Low Flange Black Flat Bottom Polystyrene TC-Treated Microplate. • d. Wash the cassette with 10-20 mL of ddH2O, follow by 10-20 mL of 70% EtOH, then again with 10-20 mL of ddH2O. • 6. Incubate the plates at 37° C.×compound treatment time.
• 1. If not already, bring Nano-Glo® HiBiT Lytic Buffer to room temperature. • 2. Determine the amount of reagent needed. A volume of reagent equal to the volume of media in the well should be added (i.e. 30 μL of cells will need 30 μL of HiBiT Lytic reagent). • 3. Into a given volume of buffer, dilute the substrate 50-fold and the LgBiT protein 100-fold. For example, to make 10 ml of reagent, add the following: • 10 ml Nano-Glo® HiBiT Lytic Buffer • 200 μl Nano-Glo® HiBiT Lytic Substrate • 100 μl LgBiT Protein • The reagent should be reconstituted immediately before use. However, once reconstituted, it should take about 4 hours for the activity to decrease 10%. • 4. Cool down the cell plate to room temperature for 10-15 minutes without lid. • 5. Dispense the HiBiT Lytic Reagent via E1-ClipTip™ Electronic Multichannel Pipettes or Multidrop™ Combi Reagent Dispenser with Standard tube dispensing cassette: • a. Prime the cassette with 10-20 mL of ddH2O. • b. Prime the cassette with 10-20 mL of CTG 2.0. • c. Dispense the HiBiT Lytic Reagent at medium speed for 30 μL/well in cell plate to column 1-23 (column 24 will be used as plate background). • d. Wash the cassette with 10-20 mL of ddH2O, follow by 10-20 mL of 70% EtOH, then again with 10-20 mL of ddH2O. • 6. Incubate the cell plate at room temperature for 10 minutes without lid. • 7. […]

Compound | DC50
CNC(=O)c1cnc2ccc(-c3ccc(C(=O)NCCCCCCCCc4cccc5c4CN(C4CCC(=O)NC4=O)C5=O)cc3)cc2c1Nc1ccccc1 (stereo not shown) [Compound 378, 4-anilino-6-[4-[8-[2-(2,6-dioxo-3-piperidyl)-1-oxo-isoindolin-4-yl]octylcarbamoyl]phenyl]-N-methyl-quinoline-3-carboxamide] | < 0.1 µM
NC(=O)c1cnc2ccc(-c3ccc(C(=O)NCCCNC(=O)COc4cccc5c4C(=O)N(C4CCC(=O)NC4=O)C5=O)cc3)cc2c1Nc1ccccc1 (stereo not shown) [Compound 306, 6-(4-((3-(2-((2-(2,6-dioxopiperidin-3-yl)-1,3-dioxoisoindolin-4-yl)oxy)acetamido)propyl)carbamoyl)phenyl)-4-(phenylamino)quinoline-3-carboxamide] | < 0.1 µM
CNC(=O)c1cnc2ccc(-c3ccc(C(=O)NCCCCNC(=O)C(C)Nc4cccc5c4C(=O)N(C4CCC(=O)NC4=O)C5=O)cc3)cc2c1Nc1ccccc1 (stereo not shown) [Compound 346, 4-anilino-6-[4-[4-[2-[[2-(2,6-dioxo-3-piperidyl)-1,3-dioxo-isoindolin-4-yl]amino]propanoylamino]butylcarbamoyl]phenyl]-N-methyl-quinoline-3-carboxamide] | < 0.1 µM
NC(=O)c1cnc2ccccc2c1Nc1ccc(-c2ccc(C(=O)NCCCCNC(=O)COc3cccc4c3C(=O)N(C3CCC(=O)NC3=O)C4=O)cc2)cc1 (stereo not shown) [Compound 309, 4-[4-[4-[4-[[2-[2-(2,6-dioxo-3-piperidyl)-1,3-dioxo-isoindolin-4-yl]oxyacetyl]amino]butylcarbamoyl]phenyl]anilino]quinoline-3-carboxamide] | < 0.1 µM
CNC(=O)c1cnc2ccc(N3CCC(C(=O)NCCCCNC(=O)COc4cccc5c4C(=O)N(C4CCC(=O)NC4=O)C5=O)CC3)cc2c1Nc1ccccc1 (stereo not shown) [Compound 347, 4-anilino-6-[4-[4-[[2-[2-(2,6-dioxo-3-piperidyl)-1,3-dioxo-isoindolin-4-yl]oxyacetyl]amino]butylcarbamoyl]-1-piperidyl]-N-methyl-quinoline-3-carboxamide] | < 0.1 µM
NC(=O)c1cnc2ccc(-c3ccc(C(=O)N[C@H]4CC[C@@H](NC(=O)CNC(=O)COc5cccc6c5C(=O)N(C5CCC(=O)NC5=O)C6=O)CC4)cc3)cc2c1Nc1ccccc1 (stereo partly shown) [Compound 308, 6-(4-(((1s,4s)-4-(2-(2-((2-(2,6-dioxopiperidin-3-yl)-1,3-dioxoisoindolin-4-yl)oxy)acetamido)acetamido)cyclohexyl)carbamoyl)phenyl)-4-(phenylamino)quinoline-3-carboxamide] | < 0.1 µM
CNC(=O)c1cnc2ccc(-c3ccc(C(=O)NCCCCNC(=O)COc4cccc5c4C(=O)N(C4CCC(=O)NC4=O)C5=O)cc3)cc2c1Nc1ccccc1 (stereo not shown) [Compound 340, 4-anilino-6-[4-[4-[[2-[2-(2,6-dioxo-3-piperidyl)-1,3-dioxo-isoindolin-4-yl]oxyacetyl]amino]butylcarbamoyl]phenyl]-N-methyl-quinoline-3-carboxamide] | < 0.1 µM
CNC(=O)c1cnc2ccc(-c3ccc(C(=O)NCCCCNC(=O)CNc4cccc5c4C(=O)N(C4CCC(=O)NC4=O)C5=O)nc3)cc2c1Nc1ccccc1 (stereo not shown) [Compound 358, 4-anilino-6-[6-[4-[[2-[[2-(2,6-dioxo-3-piperidyl)-1,3-dioxo-isoindolin-4-yl]amino]acetyl]amino]butylcarbamoyl]-3-pyridyl]-N-methyl-quinoline-3-carboxamide] | < 0.1 µM

Results, then the molecule that gave them:

DC50 | Compound
< 0.1 µM | COc1cc2ncc(C(=O)NC3CC3)c(N)c2cc1-c1ccc(C(=O)NCCCCn2cc(CNc3cccc4c3C(=O)N(C3CCC(=O)NC3=O)C4=O)nn2)nc1 (stereo not shown) [Compound 398, 4-amino-N-cyclopropyl-6-[6-[4-[4-[[[2-(2,6-dioxo-3-piperidyl)-1,3-dioxo-isoindolin-4-yl]amino]methyl]triazol-1-yl]butylcarbamoyl]-3-pyridyl]-7-methoxy-quinoline-3-carboxamide]
< 0.1 µM | CNc1c(C(=O)NC2CC2)cnc2cc(F)c(-c3ccc(C(=O)NCCCCn4cc(COc5cccc6c5C(=O)N(C5CCC(=O)NC5=O)C6=O)nn4)c(F)c3)cc12 (stereo not shown) [Compound 412, N-cyclopropyl-6-[4-[4-[4-[[2-(2,6-dioxo-3-piperidyl)-1,3-dioxo-isoindolin-4-yl]oxymethyl]triazol-1-yl]butylcarbamoyl]-3-fluoro-phenyl]-7-fluoro-4-(methylamino)quinoline-3-carboxamide]
< 0.1 µM | CNc1c(C(=O)NC2CC2)cnc2cc(F)c(-c3ccc(C(=O)NCCCCCCCc4cnc5c(c4)CN(C4CCC(=O)NC4=O)C5=O)c(F)c3)cc12 (stereo not shown) [Compound 401, N-cyclopropyl-6-[4-[7-[6-(2,6-dioxo-3-piperidyl)-7-oxo-5H-pyrrolo[3,4-b]pyridin-3-yl]heptylcarbamoyl]-3-fluoro-phenyl]-7-fluoro-4-(methylamino)quinoline-3-carboxamide]
< 0.1 µM | CNC(=O)c1cnc2ccc(C(=O)NCCCCCCNC(=O)COc3cccc4c3C(=O)N(C3CCC(=O)NC3=O)C4=O)cc2c1Nc1ccccc1 (stereo not shown) [Compound 458, N6-(6-(2-((2-(2,6-dioxopiperidin-3-yl)-1,3-dioxoisoindolin-4-yl)oxy)acetamido)hexyl)-N3-methyl-4-(phenylamino)quinoline-3,6-dicarboxamide]
< 0.1 µM | CNC(=O)c1cnc2ccc(-c3ccc(C(=O)NCCCNC(=O)CN(C)c4cccc5c4C(=O)N(C4CCC(=O)NC4=O)C5=O)cc3)cc2c1Nc1ccccc1 (stereo not shown) [Compound 473, 6-(4-((3-(2-((2-(2,6-dioxopiperidin-3-yl)-1,3-dioxoisoindolin-4-yl)(methyl)amino)acetamido)propyl)carbamoyl)phenyl)-N-methyl-4-(phenylamino)quinoline-3-carboxamide]
< 0.1 µM | CNC(=O)c1cnc2cc(OC)c(-c3ccc(C(=O)NCCCCNC(=O)C(C)Nc4cccc5c4C(=O)N(C4CCC(=O)NC4=O)C5=O)nc3)cc2c1Nc1ccccc1 (stereo in doubt) [Compound 384, 6-(6-((4-((2S)-2-((2-(2,6-dioxopiperidin-3-yl)-1,3-dioxoisoindolin-4-yl)amino)propanamido)butyl)carbamoyl)pyridin-3-yl)-7-methoxy-N-methyl-4-(phenylamino)quinoline-3-carboxamide]
< 0.1 µM | CC(Nc1cccc2c1C(=O)N(C1CCC(=O)NC1=O)C2=O)c1cn(CCCCNC(=O)c2ccc(-c3cc4c(Nc5ccccc5)c(C(=O)NC5CC5)cnc4cc3C(F)(F)F)cc2F)nn1 (stereo not shown) [Compound 434, N-cyclopropyl-6-(4-((4-(4-(1-((2-(2,6-dioxopiperidin-3-yl)-1,3-dioxoisoindolin-4-yl)amino)ethyl)-1H-1,2,3-triazol-1-yl)butyl)carbamoyl)-3-fluorophenyl)-4-(phenylamino)-7-(trifluoromethyl)quinoline-3-carboxamide]
< 0.1 µM | CNC(=O)c1cnc2ccc(C(=O)NCCCCCCCCCCNC(=O)COc3cccc4c3C(=O)N(C3CCC(=O)NC3=O)C4=O)cc2c1Nc1ccccc1 (stereo not shown) [Compound 450, N6-(10-(2-((2-(2,6-dioxopiperidin-3-yl)-1,3-dioxoisoindolin-4-yl)oxy)acetamido)decyl)-N3-methyl-4-(phenylamino)quinoline-3,6-dicarboxamide]
